Data taken from PubChem BioAssay (NCI).
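Compound exposure: 48 hours, 5 concentrations, 96-well plates. TGI marks complete inhibition of growth.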

Key:
P388 leukemia = experiment: NCI tumour cell line growth inhibition, 48 h
RXF-631 renal = experiment: NCI tumour cell line growth inhibition, 48 h

Row | Structure (SMILES) | TGI (P388 leukemia) | TGI (RXF-631 renal)
1 | C=CCCCCCCCCC(=O)O | 379 µM | –
2 | CC1=C2C3OC(=O)C(C)C3CCC2(C)C=CC1=Nc1ccccc1 (centres undefined) | > 100 µM | –
3 | CCOC(=O)C(=O)NC12CC3CC(CC(C3)C1)C2 | – | > 100 µM
4 | CN(C(=O)c1ccc(OCCCC(=O)O)c(Cl)c1Cl)C1CCCC1 | > 100 µM | –
